In PubChem BioAssay (NCI):
Values joined by “and” are separate entries in the source; they are usually repeats but may differ in a detail not shown here. Equal entries are not always repeated.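 1) Cells in 96-well plates. 2) Compound, 48 h, 5 concentrations. 3) Linear interpolation between surrounding doses. 4) Unreached endpoint = highest concentration. Here, GI50 denotes the concentration required for 50% inhibition of growth. TGI is the concentration that stops growth completely.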 Where a SMILES comes first, the peptide text is derived from it. [ ]: non-standard residue; d: D form. Phe(4-Cl) = N[CH](Cc1ccc(Cl)cc1)C(=O)O

What was measured:
Test in all cases: growth of human tumour cells (NCI), 48 h
SF-295 CNS = system: SF-295 CNS
T-47D breast = system: T-47D breast
A498 renal = system: A498 renal
SK-MEL-2 melanoma = system: SK-MEL-2 melanoma
A549 NSCLC = system: A549 NSCLC
XF 498 CNS = system: XF 498 CNS
DU-145 prostate = system: DU-145 prostate
KM20L2 colon = system: KM20L2 colon
DMS 273 small cell lung = system: DMS 273 small cell lung
OVCAR-8 ovarian = system: OVCAR-8 ovarian

Structure (SMILES): COc1ccc2c(c1)C=C([N+](=O)[O-])C(C1OC(C)(C)OC1C1COC(C)(C)O1)O2 (stereo unspecified)
- TGI (SF-295 CNS): 22.2 µM
- TGI (T-47D breast): 26.6 µM
- TGI (A498 renal): 33.3 µM
- TGI (SK-MEL-2 melanoma): 4.36 µM
- TGI (A549 NSCLC): 41.9 µM
- TGI (XF 498 CNS): 22.9 µM
- TGI (DU-145 prostate): 29.5 µM
- TGI (KM20L2 colon): 17.3 µM
- TGI (DMS 273 small cell lung): 9.22 µM
- TGI (OVCAR-8 ovarian): 11.4 µM

Structure (SMILES): CN/N=C(/CCN1CCCC1)CC(c1ccccc1)c1c(O)c2ccccc2oc1=O (stereo unspecified)
- TGI (SF-295 CNS): > 100 µM
- TGI (T-47D breast): > 100 µM
- TGI (A498 renal): > 100 µM
- TGI (SK-MEL-2 melanoma): > 100 µM
- TGI (A549 NSCLC): > 100 µM
- TGI (XF 498 CNS): > 100 µM
- TGI (DU-145 prostate): > 100 µM
- TGI (KM20L2 colon): > 100 µM
- TGI (DMS 273 small cell lung): > 100 µM
- TGI (OVCAR-8 ovarian): > 100 µM

Structure (SMILES): C[N+](C)(C)CC1CCCC(C[N+](C)(C)C)C1=O (stereo unspecified)
- TGI (SF-295 CNS): 45.6 µM
- TGI (T-47D breast): 3.33 µM
- TGI (A498 renal): 20.2 µM
- TGI (SK-MEL-2 melanoma): 3.29 µM
- TGI (A549 NSCLC): 40.6 µM
- TGI (XF 498 CNS): 0.898 µM
- TGI (DU-145 prostate): 16.7 µM
- TGI (KM20L2 colon): 5.5 µM
- TGI (DMS 273 small cell lung): 10.1 µM
- TGI (OVCAR-8 ovarian): 1.15 µM

Structure (SMILES): CCC[CH2][Sn]1([CH2]CCC)[O]C(=O)C(C(C)C)N=Cc2ccccc2[O]1 (stereo unspecified)
- GI50 (SF-295 CNS): 1040 nM
- TGI (SF-295 CNS): 2.29 µM
- GI50 (A498 renal): 1.08 µM
- TGI (A498 renal): > 100 µM
- GI50 (SK-MEL-2 melanoma): 0.195 µM
- TGI (SK-MEL-2 melanoma): 0.521 µM
- GI50 (A549 NSCLC): 1.59 µM
- TGI (A549 NSCLC): 3.14 µM
- GI50 (XF 498 CNS): > 100 µM
- TGI (XF 498 CNS): > 100 µM
- GI50 (KM20L2 colon): 1040 nM
- TGI (KM20L2 colon): 2.22 µM
- GI50 (DMS 273 small cell lung): 730 nM
- TGI (DMS 273 small cell lung): 2.04 µM
- GI50 (OVCAR-8 ovarian): > 100000 nM
- TGI (OVCAR-8 ovarian): > 100 µM

Structure (SMILES): CCC1(O)C(=O)OCc2c1cc1n(c2=O)Cc2cc3ccc(C=O)cc3nc2-1 (stereo unspecified)
- GI50 (SF-295 CNS): 2070 nM
- TGI (SF-295 CNS): 50 µM and 52.6 µM
- GI50 (T-47D breast): 412 nM
- TGI (T-47D breast): 3.31 µM and 8.72 µM
- GI50 (A498 renal): 5.39 µM
- TGI (A498 renal): 13.5 µM and 19.5 µM
- GI50 (SK-MEL-2 melanoma): 17.6 µM
- TGI (SK-MEL-2 melanoma): 40.6 µM and 39.2 µM
- GI50 (A549 NSCLC): 7.43 µM
- TGI (A549 NSCLC): 50 µM and 18.8 µM
- TGI (XF 498 CNS): 19.2 µM
- TGI (DU-145 prostate): 3.21 µM and 24.3 µM
- TGI (KM20L2 colon): > 50.3 µM
- TGI (DMS 273 small cell lung): 3.89 µM
- GI50 (OVCAR-8 ovarian): 539 nM
- TGI (OVCAR-8 ovarian): 8.02 µM and 24.2 µM

Structure (SMILES): COc1c2c(cc3nc4ccccc4nc13)CCC(C(C)(C)O)C2 (stereo unspecified)
- TGI (SF-295 CNS): > 100 µM
- TGI (A498 renal): > 100 µM
- TGI (SK-MEL-2 melanoma): > 100 µM
- TGI (A549 NSCLC): > 100 µM
- TGI (XF 498 CNS): > 100 µM
- TGI (KM20L2 colon): > 100 µM
- TGI (DMS 273 small cell lung): > 100 µM
- TGI (OVCAR-8 ovarian): > 100 µM

Structure (SMILES): O=C(O)CN(c1ccccc1)S(=O)(=O)c1ccccc1[N+](=O)[O-]
- TGI (SF-295 CNS): > 100 µM
- TGI (A498 renal): > 100 µM
- TGI (SK-MEL-2 melanoma): > 100 µM
- TGI (A549 NSCLC): > 100 µM
- TGI (XF 498 CNS): > 100 µM
- TGI (KM20L2 colon): > 100 µM
- TGI (DMS 273 small cell lung): > 100 µM
- TGI (OVCAR-8 ovarian): > 100 µM

Structure (SMILES): CC(O)C(NC(=O)C(Cc1ccccc1)NC(=O)C(NC(=O)C(CCCCN)NC(=O)C(Cc1c[nH]c2ccccc12)NC(=O)C(Cc1ccc(O)cc1)NC(=O)C(Cc1ccc(Cl)cc1)NC(=O)C(N)Cc1ccccc1)C(C)O)C(N)=O (stereo unspecified) (H-F[Phe(4-Cl)]YWKTFT-NH2; configuration not given here)
- TGI (SF-295 CNS): 21.3 µM
- TGI (A498 renal): 34 µM
- TGI (SK-MEL-2 melanoma): 39.3 µM
- TGI (A549 NSCLC): 36 µM
- TGI (XF 498 CNS): 28.9 µM
- TGI (KM20L2 colon): 48.7 µM
- TGI (DMS 273 small cell lung): > 100 µM
- TGI (OVCAR-8 ovarian): 67.5 µM
